Experimental data reported in patent US12594271B2, “Combination therapy for cancer” (Health Research, Inc., priority 2019, dated 2026).
Entries after “also recorded” stand apart in the source; their conditions may differ.

Key:
4T1 tumors cells = assay: 4T1 orthotopic mammary tumor model: tumor growth and spontaneous lung metastases; type: in vivo, mice; conditions: BRQ 10 mg/kg i.p. daily
Description: FIG. 1. […] (A) 4T1 growth in mice treated daily with BRQ (10 mg/kg, i.p.), anti-PD-1 ([…], i.p. at the indicated 3 or 4 times) or both agents. n=5 mice/group/experiment for upper and lower graphs; *P<0.01 against single-agent treatments. B-D, data shown are for analysis of A, upper graph. (B) Spontaneous metastatic lung counts; *P<0.01. Similar patterns seen in the 2nd experiment (avg. #mets): vehicle=12; BRQ=1; αPD-1=5; combo=1. (C) Splenic granulocytic (CD11b^+Ly6C^loLy6G^+) or monocytic (CD11b^+Ly6C^hiLy6G^−) numbers in non-tumor-bearing (NTB) or tumor-bearing mice were converted to a ratio for group-by-group comparison; *P<0.03. (D) Splenic CD3^+ T cell numbers in tumor-bearing mice. (E) Splenic CD8^+ T cells in A (lower graph) were assayed based on differential expression of CD44:naïve ([…]) vs. effector/central memory (hi) phenotypes. *P<0.03. Data reported as a ratio to indicate a rising memory pool. […]
Treatment of Tumor-Bearing Mice Alters Surface Phenotype of Myeloid Cells. […] Female BALB/c or C57BL/6 mice were orthotopically implanted with 4T1 or AT-3 mammary tumor cells, respectively, and were monitored 3 times weekly for tumor growth. […]
Effect of Treatment of Tumor-Bearing Mice with BRQ on the Efficacy of Anti-Tumor Immunotherapy. […] At endpoint, BM cells or spleens were collected and analyzed for the indicated populations by flow cytometry. […]

MDSCs = assay: MDSC suppression assay: inhibition of T cell proliferation by in vitro generated MDSCs; type: cell-based, mouse
Description: FIG. 2. […] (A) MDSCs were produced in vitro from mouse bone marrow cells using GM-CSF and G-CSF±BRQ (1 μM) or ATRA (10 μM) at the start of the 4-day culture. Cells tested for their ability to inhibit T cell proliferation (1:1 ratio), as in FIG. 5. Fresh BM=Uncultured bone marrow cells. (B) Similar to A, except that uridine (200 μM) was added to rescue the effect of BRQ. (C) Expression of IRF8 (upper) or SLFN4 (lower) was analyzed by qRT-PCR in Lin^− BM cells cultured as in A for 2 days. Data normalized to the vehicle.
In Vitro Development of MDSCs. Unfractionated mouse bone marrow cells were cultured in dishes with recombinant mouse G-CSF and recombinant mouse GM-CSF (40 ng/ml of each cytokine) for 96 hours to produce MDSCs, as described (Marigo et al. Immunity 32:790-802, 2010). After culture, cells were collected and analyzed by flow cytometry for the indicated cell surface markers. Uncultured or fresh bone marrow (BM) cells served as a negative control.
Cultured Cells Develop Potent Immunosuppressive Capacity. Using the methods described for FIG. 4, experiments were then performed to determine whether the cells generated from this BM culture system functionally behaved as MDSCs, based on their ability to inhibit T cell proliferation in vitro. To that end, fresh BM (i.e., no in vitro culture) or cultured BM cells (i.e., MDSCs at two different MDSC-to-T cell ratios of 1:1 or 1:2) were co-mixed in 96-well plates with CellTrace Violet (CTV)—stained syngeneic naïve splenocytes as a source of T cells and stimulated with or without soluble agonistic anti-CD3 monoclonal antibody (mAb) (1 μg/ml) for 72 hours. After co-culture, CTV dye dilution in the gated CD4^+ or CD8^+ T cell fractions within the splenocyte populations was analyzed by flow cytometry to determine the extent of proliferation based on dye dilution. In FIG. 5, top panels show CTV dye dilution, as determined by flow cytometry and depicted as a histogram; bottom panels indicate the percentage of proliferation, based on quantification of the histogram data. […]

Cc1c(-c2ccc(-c3ccccc3F)cc2)nc2ccc(F)cc2c1C(=O)O [BRQ, 6-Fluoro-2-(2′-fluoro-[1,1′-biphenyl]-4-yl)-3-methylquinoline-4-carboxylic acid]
Spontaneous metastatic lung counts (avg. #mets) (4T1 tumors cells; 2nd experiment, anti-PD-1 200 μs i.p. 3 or 4 times, endpoint): 1 | 4T1 tumor growth (4T1 tumors cells; BALB/c mice, anti-PD-1 200 μg i.p.): little effect on tumor growth; also recorded: only a nominal effect on primary tumor growth | ability of in vitro generated MDSCs to inhibit CD4+ or CD8+ T cell proliferation (MDSCs; BRQ 1 μM at start of 4-day culture, MDSC:T cell 1:1): inhibits MDSC-mediated immune suppression in vitro; also recorded: more effective than ATRA in limiting the formation of immune suppressive cells in vitro; also recorded: significantly reduced the ability of these in vitro-generated MDSCs to inhibit T cell proliferation; also recorded: mitigates MDSC suppressive activity; also recorded: significantly less suppressive to CD4^+ or CD8^+ T cell proliferation compared to cultures containing ATRA | ability of in vitro generated MDSCs to inhibit T cell proliferation, uridine rescue (MDSCs; BRQ 1 μM plus extracellular uridine 200 μM): exogenously supplied uridine blocked the effect of BRQ; also recorded: the addition of uridine antagonized the effect of BRQ and restored MDSC suppressive activity
